Assay results from patent US20260216239A1 (Arizona Board of Regents on Behalf of the University of …, priority 2020, published 2026).
Entries after “also recorded” stand apart in the source; their conditions may differ.

What was measured:
[1] = tested on: C. scutulatus scutulatus (type B) venom; test: Rabbit model of subcutaneous envenomation, thrombelastography and vital signs; assay type: in vivo, New Zealand White rabbits; conditions: n=1
Description: Male New Zealand White rabbits (2-3 kg) were procured from Charles River Laboratories (San Diego, CA, USA) and housed within our animal facility and allowed food and water ad libitum for at least 1 week prior to experimentation.
Rabbits were briefly restrained and had one ear closely clipped and cleaned with a 70% isopropyl alcohol pad. A 22 G plastic catheter was placed in the central ear artery and another similar catheter placed in the marginal ear vein; both catheters were connected to an end cap with a rubber diaphragm that allowed the withdrawal of blood samples and administration of medications. The animals were sedated intravenously with 1 mg/kg midazolam, with supplemental doses of 0.5-1 mg/kg provided during experimentation to maintain sedation. […] Heart rate (HR) and SpO2 were recorded at baseline and every 15 min thereafter until the end of the experiment.
An approximately 5 cm by 5 cm area of skin over either flank of the rabbit, midway between the lumbar spine and mid abdomen, was closely shaved and cleaned with a 70% isopropyl alcohol pad. A 1 cm circle was drawn with a felt tip marker in the center of this area, which served as the injection site for venom and antivenom as appropriate. After obtaining baseline HR value, SpO2 value, and the initial blood sample, venom was injected subcutaneously in the middle of the circle through a ⅝ inch long, 25 G needle. […]

human plasma = conditions: cited from earlier work
Echis leucogaster venom [2] = conditions: previously characterized by this laboratory; cited from earlier work
Echis leucogaster venom [3] = test: Thrombelastography in human plasma of venom procoagulant activity after isolated exposure of venom to compounds; assay type: biochemical; conditions: venom exposed 5 min to 100 μM CORM-2 in 5% human albumin; venom 1 μg/mL in plasma
[4] = tested on: Oxyuranus microlepidotus venom; test: as above; assay type: biochemical; conditions: venom 1 μg/ml in plasma; for procoagulant activity of venom: venom exposed ≥5 min in PBS to 100 μM CORM-2, 100 μM RuCl3 or both
Protocol: Thrombelastographic analyses. The volumes of subsequently described plasmatic and other additives summed to a final volume of 360 μl. Samples were composed of 320 μl of plasma; 16.4 μl of PBS, 20 μl of 200 mM CaCl2), and 3.6 μl of PBS or venom mixture, which were pipetted into a disposable cup in a Thrombelastograph® hemostasis system (Model 5000, Haemonetics Inc., Braintree, MA, USA) at 37° C., and then rapidly mixed by moving the cup up against and then away from the plastic pin five times. The following viscoelastic parameters described previously (see, Nielsen V G (2019) J Thromb Thrombolysis 47, 73-79; Gessner G, et al., (2017) Eur J Pharmacol 815, 33-41; Nielsen V G, Wagner M T, Frank N (2020) Int J Mol Sci 21, 2082; Lazić D, Arsenijević A, Puchta R, Bugarčić ŽD, Rilak A (2016) Dalton Trans 45, 4633; Hanif M, et al., (2017) ChemPlusChem 82, 841-847) were measured: time to maximum rate of thrombus generation (TMRTG): this is the time interval (minutes) observed prior to maximum speed of clot growth; maximum rate of thrombus generation (MRTG): this is the maximum velocity of clot growth observed (dynes/cm^2/second); and total thrombus generation (TTG, dynes/cm^2), the final viscoelastic resistance observed after clot formation.
O. microlepidotus. This venom was exposed to 0 or 100 μM CORM-2 in the presence of 0 or 100 μM RuCl3 in PBS for at least 5 minutes at room temperature prior to placement into plasma followed immediately with commencement of thrombelastographic analysis. The final concentration of this venom in plasma was 1 μg/ml.
Given the aforementioned, the experimental conditions utilized were: 1) V condition—venom in PBS; 2) Ru(II) condition—venom exposed to CORM-2; 3) Ru(III) condition—venom exposed to RuCl3; 4) Ru(II+III) condition—venom exposed to CORM-2 and RuCl3 simultaneously. After the 5 minute period at room temperature, 3.6 μl of one of these solutions was added to the plasma sample in the plastic thrombelastograph cup.
The volumes of subsequently described plasmatic and other additives summed to a final volume of 360 μl. Samples were composed of 320 μl of plasma; 16.4 μl of PBS, 20 μl of 200 mM CaCl2), and 3.6 μl of PBS or venom mixture, which were pipetted into a disposable cup in a Thrombelastograph® hemostasis system (Model 5000, Haemonetics Inc., Braintree, MA, USA) at 37° C., and then rapidly mixed by moving the cup up against and then away from the plastic pin five times. The following viscoelastic parameters described previously (see, Nielsen, V. G. J Thromb Thrombolysis 2019, 47, 73-79; Gessner, G.; et al., Eur J Pharmacol 2017, 815, 33-41; Nielsen, V. G.; Wagner, M. T.; Frank, N. Int J Mol Sci 2020, 21, 2082; Lazid, D.; et al., Dalton Trans 2016, 45, 4633; Hanif, M.; et al., ChemPlusChem 2017, 82, 841-847) were measured: time to maximum rate of thrombus generation (TMRTG): this is the time interval (minutes) observed prior to maximum speed of clot growth; maximum rate of thrombus generation (MRTG): this is the maximum velocity of clot growth observed (dynes/cm2/second); and total thrombus generation (TTG, dynes/cm2), the final viscoelastic resistance observed after clot formation. […]

Atheris nitschei venom = conditions: previously characterized by this laboratory; cited from earlier work
[5] = 100 μM CORM-2, 100 μM RuCl3 or both

Compound: [C-]#[O+].[C-]#[O+].[C-]#[O+].[C-]#[O+].[C-]#[O+].[C-]#[O+].[Cl][Ru][Cl].[Cl][Ru][Cl] [CORM-2, tricarbonyldichlororuthenium(II) dimer]
- plasmatic velocity of clot formation and strength ([1]; 10 mg/kg CORM-2 injected into venom site 5 min after venom 11.2 mg/kg): appeared to preserve the velocity of clot formation and strength until the third hour after venom injection
- plasmatic velocity of clot formation ([1]; 20 mg/kg CORM-2 injected into venom site after venom 11.2 mg/kg): minimally affected for the three hours after venom injection
- coagulation kinetics (human plasma; 1 μM CORM-2): does not affect
- plasmatic coagulation kinetics (human plasma; up to 10 μM CORM-2 in PBS): no effect
- CORM-2/ iRM Inhibition (Echis leucogaster venom [2]): Yes
- procoagulant activity of venom (Echis leucogaster venom [3]): uninhibited
- maximum rate of thrombus generation (MRTG) [4, 5]: decrease
- time to maximum rate of thrombus generation (TMRTG) [4, 5]: prolonged; also recorded: significant increase
- total thrombus generation (TTG) [4, 5]: decrease
- procoagulant activity of venom [4]: significant decrease; also recorded: procoagulant activity inhibition
- CORM-2/ iRM Inhibition (Atheris nitschei venom): Yes

Compound: [Cl][Ru]([Cl])[Cl] [RuCl3, ruthenium(III) chloride]
- human plasmatic coagulation (human plasma; RuCl3 at or below 1 μM): does not significantly affect
- procoagulant activity of venom [4]: did not significantly affect
